Experiments:
[1] = molecular target: Tyrosine-protein kinase Fgr (Homo sapiens) (UniProt P09769); assay: Inhibition of T7 bacteriophage fused human FGR at 10 uM by KINOMEscan analysis relative to control; values are per cent of control
[2] = molecular target: Phosphatidylinositol 4,5-bisphosphate 3-kinase catalytic subunit gamma isoform (Homo sapiens) (UniProt P48736); assay: Inhibition of T7 bacteriophage fused human PIK3CG at 10 uM by KINOMEscan analysis relative to control
[3] = molecular target: Glycogen synthase kinase-3 beta (Homo sapiens) (UniProt P49841); assay: Inhibition of T7 bacteriophage fused human GSK3B at 10 uM by KINOMEscan analysis relative to control; values are per cent of control
[4] = molecular target: RAC-beta serine/threonine-protein kinase (Homo sapiens) (UniProt P31751); assay: Inhibition of T7 bacteriophage fused human AKT2 at 10 uM by KINOMEscan analysis relative to control
[5] = test system: Tyrosine-protein kinase ABL1 (Homo sapiens), P00519 [Q252H]; assay: Inhibition of T7 bacteriophage fused human phosphorylated ABL1 Q252H mutant at 10 uM by KINOMEscan analysis relative to control
[6] = molecular target: Glycogen synthase kinase-3 alpha (Homo sapiens) (UniProt P49840); assay: Inhibition of T7 bacteriophage fused human GSK3A at 10 uM by KINOMEscan analysis relative to control
[7] = molecular target: Platelet-derived growth factor receptor beta (Homo sapiens) (UniProt P09619); assay: Inhibition of T7 bacteriophage fused human PDGFRB at 10 uM by KINOMEscan analysis relative to control
[8] = molecular target: Ephrin type-B receptor 6 (Homo sapiens) (UniProt O15197); assay: Inhibition of T7 bacteriophage fused human EPHB6 at 10 uM by KINOMEscan analysis relative to control
[9] = molecular target: CDK4/Cyclin D3 (Homo sapiens) (UniProt P11802+P30281); assay: Inhibition of T7 bacteriophage fused human CDK4-cyclinD3 at 10 uM by KINOMEscan analysis relative to control; type: protein-complex assay
[10] = molecular target: Casein kinase I isoform gamma-1 (Homo sapiens) (UniProt Q9HCP0); assay: Inhibition of T7 bacteriophage fused human CSNK1G1 at 10 uM by KINOMEscan analysis relative to control
[11] = molecular target: Serine/threonine-protein kinase/endoribonuclease IRE1 (Homo sapiens) (UniProt O75460); assay: Inhibition of T7 bacteriophage fused human ERN1 at 10 uM by KINOMEscan analysis relative to control; values are per cent of control
[12] = test system: Phosphatidylinositol 4,5-bisphosphate 3-kinase catalytic subunit alpha isoform (Homo sapiens), P42336 [C420R]; assay: Inhibition of T7 bacteriophage fused human PIK3CA C420R mutant at 10 uM by KINOMEscan analysis relative to control
[13] = molecular target: Serine/threonine-protein kinase pim-2 (Homo sapiens) (UniProt Q9P1W9); assay: Inhibition of T7 bacteriophage fused human PIM2 at 10 uM by KINOMEscan analysis relative to control
[14] = molecular target: Cyclin-dependent kinase 7 (Homo sapiens) (UniProt P50613); assay: Inhibition of T7 bacteriophage fused human CDK7 at 10 uM by KINOMEscan analysis relative to control
[15] = molecular target: Homeodomain-interacting protein kinase 1 (Homo sapiens) (UniProt Q86Z02); assay: Inhibition of T7 bacteriophage fused human HIPK1 at 10 uM by KINOMEscan analysis relative to control
[16] = test system: Mast/stem cell growth factor receptor Kit (Homo sapiens), P10721 [D816H]; assay: Inhibition of T7 bacteriophage fused human KIT D816H mutant at 10 uM by KINOMEscan analysis relative to control
[17] = molecular target: Mitogen-activated protein kinase kinase kinase kinase 3 (Homo sapiens) (UniProt Q8IVH8); assay: Inhibition of T7 bacteriophage fused human MAP4K3 at 10 uM by KINOMEscan analysis relative to control; values are per cent of control
[18] = molecular target: Proto-oncogene tyrosine-protein kinase receptor Ret (Homo sapiens) (UniProt P07949); assay: Inhibition of T7 bacteriophage fused human RET at 10 uM by KINOMEscan analysis relative to control
[19] = molecular target: Aurora kinase C (Homo sapiens) (UniProt Q9UQB9); assay: Inhibition of T7 bacteriophage fused human AURKC at 10 uM by KINOMEscan analysis relative to control
[20] = molecular target: Protein kinase C iota type (Homo sapiens) (UniProt P41743); assay: Inhibition of T7 bacteriophage fused human PRKCI at 10 uM by KINOMEscan analysis relative to control
[21] = molecular target: Calcium/calmodulin-dependent protein kinase type 1 (Homo sapiens) (UniProt Q14012); assay: Inhibition of T7 bacteriophage fused human CAMK1 at 10 uM by KINOMEscan analysis relative to control
[22] = molecular target: Cyclin-dependent kinase 13 (Homo sapiens) (UniProt Q14004); assay: Inhibition of T7 bacteriophage fused human CDC2L5 at 10 uM by KINOMEscan analysis relative to control
[23] = molecular target: Homeodomain-interacting protein kinase 3 (Homo sapiens) (UniProt Q9H422); assay: Inhibition of T7 bacteriophage fused human HIPK3 at 10 uM by KINOMEscan analysis relative to control; values are per cent of control
[24] = molecular target: Myosin light chain kinase family member 4 (Homo sapiens) (UniProt Q86YV6); assay: Inhibition of T7 bacteriophage fused human MYLK4 at 10 uM by KINOMEscan analysis relative to control; values are per cent of control
[25] = test system: Phosphatidylinositol 4,5-bisphosphate 3-kinase catalytic subunit alpha isoform (Homo sapiens), P42336 [M1043I]; assay: Inhibition of T7 bacteriophage fused human PIK3CA M1043I mutant at 10 uM by KINOMEscan analysis relative to control
[26] = molecular target: MAP/microtubule affinity-regulating kinase 4 (Homo sapiens) (UniProt Q96L34); assay: Inhibition of T7 bacteriophage fused human MARK4 at 10 uM by KINOMEscan analysis relative to control; values are per cent of control
[27] = molecular target: Tyrosine-protein kinase ABL1 (Homo sapiens) (UniProt P00519); assay: Inhibition of T7 bacteriophage fused human nonphosphorylated ABL1 at 10 uM by KINOMEscan analysis relative to control
[28] = molecular target: Non-receptor tyrosine-protein kinase TNK1 (Homo sapiens) (UniProt Q13470); assay: Inhibition of T7 bacteriophage fused human TNK1 at 10 uM by KINOMEscan analysis relative to control
[29] = molecular target: Mitogen-activated protein kinase 14 (Homo sapiens) (UniProt Q16539); assay: Inhibition of T7 bacteriophage fused human p38-alpha at 10 uM by KINOMEscan analysis relative to control; values are per cent of control
[30] = test system: Epidermal growth factor receptor (Homo sapiens), P00533 [L861Q]; assay: Inhibition of T7 bacteriophage fused human EGFR L861Q mutant at 10 uM by KINOMEscan analysis relative to control

Chain of Cyclin-dependent kinase 7 (Homo sapiens) (P50613 whole entry, the tested form may be a part): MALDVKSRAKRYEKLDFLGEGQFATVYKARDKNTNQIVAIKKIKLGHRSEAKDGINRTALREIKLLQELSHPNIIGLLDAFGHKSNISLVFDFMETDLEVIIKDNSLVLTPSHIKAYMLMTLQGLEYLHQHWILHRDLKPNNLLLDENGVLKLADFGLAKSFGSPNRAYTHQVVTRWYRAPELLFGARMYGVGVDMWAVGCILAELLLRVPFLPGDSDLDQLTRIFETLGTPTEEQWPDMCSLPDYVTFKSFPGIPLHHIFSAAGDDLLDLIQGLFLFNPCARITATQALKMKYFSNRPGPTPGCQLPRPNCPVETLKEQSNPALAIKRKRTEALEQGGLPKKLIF
Chain of Non-receptor tyrosine-protein kinase TNK1 (Homo sapiens) (Q13470 whole entry, the tested form may be a part): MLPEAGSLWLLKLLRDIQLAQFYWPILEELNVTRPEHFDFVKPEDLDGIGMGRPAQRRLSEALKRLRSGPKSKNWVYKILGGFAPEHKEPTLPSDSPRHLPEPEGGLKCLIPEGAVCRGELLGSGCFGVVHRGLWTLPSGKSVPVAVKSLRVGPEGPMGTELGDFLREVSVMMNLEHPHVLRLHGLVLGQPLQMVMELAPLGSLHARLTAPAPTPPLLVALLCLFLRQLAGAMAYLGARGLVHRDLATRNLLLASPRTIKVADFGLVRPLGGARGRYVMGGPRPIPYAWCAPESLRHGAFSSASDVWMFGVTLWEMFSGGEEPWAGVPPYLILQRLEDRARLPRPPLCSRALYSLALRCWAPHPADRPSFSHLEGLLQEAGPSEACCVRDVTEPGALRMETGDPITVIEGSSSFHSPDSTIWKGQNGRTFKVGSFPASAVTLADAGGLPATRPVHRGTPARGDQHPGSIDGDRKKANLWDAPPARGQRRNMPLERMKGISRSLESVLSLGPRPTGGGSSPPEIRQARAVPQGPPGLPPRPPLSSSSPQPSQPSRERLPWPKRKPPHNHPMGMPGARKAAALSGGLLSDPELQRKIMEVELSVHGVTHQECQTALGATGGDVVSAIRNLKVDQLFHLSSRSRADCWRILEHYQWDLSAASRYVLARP
Chain of Cyclin-dependent kinase 13 (Homo sapiens) (Q14004 whole entry, looked up, the tested form may be a part): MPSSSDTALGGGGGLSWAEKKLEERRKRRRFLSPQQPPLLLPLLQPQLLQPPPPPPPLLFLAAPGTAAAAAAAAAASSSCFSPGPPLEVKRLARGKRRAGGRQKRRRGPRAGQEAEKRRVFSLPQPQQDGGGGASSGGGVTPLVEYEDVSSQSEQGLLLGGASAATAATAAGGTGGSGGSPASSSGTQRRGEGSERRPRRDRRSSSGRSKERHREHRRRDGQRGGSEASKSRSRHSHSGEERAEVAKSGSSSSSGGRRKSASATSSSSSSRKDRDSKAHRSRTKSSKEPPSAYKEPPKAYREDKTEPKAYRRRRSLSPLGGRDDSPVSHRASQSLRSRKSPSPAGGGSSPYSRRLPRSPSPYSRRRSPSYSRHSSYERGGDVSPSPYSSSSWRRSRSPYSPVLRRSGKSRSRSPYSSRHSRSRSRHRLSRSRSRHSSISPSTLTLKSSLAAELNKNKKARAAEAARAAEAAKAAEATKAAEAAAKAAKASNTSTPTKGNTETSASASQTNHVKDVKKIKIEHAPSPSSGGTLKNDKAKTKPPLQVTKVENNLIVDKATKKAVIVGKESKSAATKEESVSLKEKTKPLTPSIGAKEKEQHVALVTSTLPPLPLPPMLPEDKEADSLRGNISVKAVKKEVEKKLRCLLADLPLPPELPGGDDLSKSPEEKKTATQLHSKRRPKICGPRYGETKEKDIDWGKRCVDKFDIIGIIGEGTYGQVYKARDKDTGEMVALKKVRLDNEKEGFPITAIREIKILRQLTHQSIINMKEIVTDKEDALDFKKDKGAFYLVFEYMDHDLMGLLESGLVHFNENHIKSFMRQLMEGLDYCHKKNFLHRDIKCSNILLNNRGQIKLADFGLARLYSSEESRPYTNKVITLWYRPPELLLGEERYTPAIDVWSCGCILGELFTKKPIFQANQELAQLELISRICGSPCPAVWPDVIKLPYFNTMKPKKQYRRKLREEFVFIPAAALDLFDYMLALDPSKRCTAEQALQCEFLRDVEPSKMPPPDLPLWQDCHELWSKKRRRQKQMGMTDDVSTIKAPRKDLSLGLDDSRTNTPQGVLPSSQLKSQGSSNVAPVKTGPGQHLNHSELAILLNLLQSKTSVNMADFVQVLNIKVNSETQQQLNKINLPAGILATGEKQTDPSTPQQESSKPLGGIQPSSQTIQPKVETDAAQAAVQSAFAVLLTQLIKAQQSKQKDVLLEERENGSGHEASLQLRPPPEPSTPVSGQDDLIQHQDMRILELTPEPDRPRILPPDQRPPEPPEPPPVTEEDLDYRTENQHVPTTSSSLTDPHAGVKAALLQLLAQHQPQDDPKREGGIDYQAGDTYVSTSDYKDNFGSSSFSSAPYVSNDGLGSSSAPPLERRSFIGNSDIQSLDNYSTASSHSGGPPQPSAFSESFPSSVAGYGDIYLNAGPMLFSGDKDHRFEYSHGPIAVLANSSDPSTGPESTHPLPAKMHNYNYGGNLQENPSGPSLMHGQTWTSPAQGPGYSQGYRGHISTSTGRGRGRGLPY
Chain of Protein kinase C iota type (Homo sapiens) (P41743 whole entry, the tested form may be a part): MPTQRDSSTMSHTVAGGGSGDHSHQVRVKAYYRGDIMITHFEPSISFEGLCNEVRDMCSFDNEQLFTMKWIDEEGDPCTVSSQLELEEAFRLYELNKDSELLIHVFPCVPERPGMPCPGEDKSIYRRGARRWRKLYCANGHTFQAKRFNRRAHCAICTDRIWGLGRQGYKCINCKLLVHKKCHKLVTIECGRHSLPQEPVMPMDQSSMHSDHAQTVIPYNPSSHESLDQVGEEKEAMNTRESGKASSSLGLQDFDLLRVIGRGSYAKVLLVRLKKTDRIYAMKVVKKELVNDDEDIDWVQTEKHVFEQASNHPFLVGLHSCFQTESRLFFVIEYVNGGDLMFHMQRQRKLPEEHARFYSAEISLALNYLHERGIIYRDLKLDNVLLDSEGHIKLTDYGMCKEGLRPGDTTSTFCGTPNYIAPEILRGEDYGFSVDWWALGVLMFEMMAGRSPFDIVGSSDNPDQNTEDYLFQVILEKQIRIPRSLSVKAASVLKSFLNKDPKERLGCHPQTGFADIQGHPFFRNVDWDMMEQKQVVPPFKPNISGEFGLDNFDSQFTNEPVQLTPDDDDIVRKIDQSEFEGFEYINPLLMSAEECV
Chain of Myosin light chain kinase family member 4 (Homo sapiens) (Q86YV6 whole entry, the tested form may be a part, canonical isoform): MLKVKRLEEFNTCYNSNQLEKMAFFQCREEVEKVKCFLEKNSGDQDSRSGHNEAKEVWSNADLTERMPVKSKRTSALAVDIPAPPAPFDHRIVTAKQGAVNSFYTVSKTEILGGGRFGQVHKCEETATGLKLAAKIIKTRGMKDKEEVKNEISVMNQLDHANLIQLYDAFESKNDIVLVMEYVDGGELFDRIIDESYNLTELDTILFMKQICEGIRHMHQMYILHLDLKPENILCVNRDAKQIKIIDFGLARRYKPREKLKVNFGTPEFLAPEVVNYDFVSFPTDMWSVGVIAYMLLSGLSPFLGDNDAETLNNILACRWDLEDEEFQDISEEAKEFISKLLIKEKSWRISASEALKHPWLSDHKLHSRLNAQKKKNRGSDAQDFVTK
Chain of Homeodomain-interacting protein kinase 1 (Homo sapiens) (Q86Z02 whole entry, looked up, the tested form may be a part): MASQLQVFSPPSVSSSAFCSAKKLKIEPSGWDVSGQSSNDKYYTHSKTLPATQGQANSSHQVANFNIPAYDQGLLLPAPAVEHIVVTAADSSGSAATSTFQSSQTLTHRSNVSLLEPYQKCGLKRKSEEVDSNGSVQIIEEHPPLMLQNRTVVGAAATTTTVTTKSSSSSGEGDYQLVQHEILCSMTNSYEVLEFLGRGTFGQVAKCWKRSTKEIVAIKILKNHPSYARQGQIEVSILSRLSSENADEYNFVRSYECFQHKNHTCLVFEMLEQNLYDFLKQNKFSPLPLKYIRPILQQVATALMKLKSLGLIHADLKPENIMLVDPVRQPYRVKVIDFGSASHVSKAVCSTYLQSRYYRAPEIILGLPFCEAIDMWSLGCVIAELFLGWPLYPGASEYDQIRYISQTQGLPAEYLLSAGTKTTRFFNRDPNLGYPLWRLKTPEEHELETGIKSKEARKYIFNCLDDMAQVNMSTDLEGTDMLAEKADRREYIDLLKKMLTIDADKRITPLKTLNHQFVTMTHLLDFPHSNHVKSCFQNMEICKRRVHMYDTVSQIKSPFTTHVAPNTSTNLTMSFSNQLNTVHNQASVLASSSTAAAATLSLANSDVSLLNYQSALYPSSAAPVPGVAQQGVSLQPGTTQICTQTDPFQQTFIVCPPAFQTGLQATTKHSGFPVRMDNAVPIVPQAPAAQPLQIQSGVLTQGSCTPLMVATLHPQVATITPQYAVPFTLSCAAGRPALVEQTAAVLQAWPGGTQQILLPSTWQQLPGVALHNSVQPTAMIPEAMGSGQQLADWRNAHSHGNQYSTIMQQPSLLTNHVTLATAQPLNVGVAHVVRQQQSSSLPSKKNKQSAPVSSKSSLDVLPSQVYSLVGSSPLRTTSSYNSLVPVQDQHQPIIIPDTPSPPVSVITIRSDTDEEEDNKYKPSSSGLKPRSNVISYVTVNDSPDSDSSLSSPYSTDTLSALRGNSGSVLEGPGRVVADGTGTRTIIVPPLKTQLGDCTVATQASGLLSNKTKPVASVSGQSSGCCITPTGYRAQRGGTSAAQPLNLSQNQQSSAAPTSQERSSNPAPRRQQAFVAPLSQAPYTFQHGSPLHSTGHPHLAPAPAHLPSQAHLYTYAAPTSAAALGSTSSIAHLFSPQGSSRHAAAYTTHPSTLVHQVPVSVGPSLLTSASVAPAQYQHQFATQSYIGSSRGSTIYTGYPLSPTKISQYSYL
Chain of Mitogen-activated protein kinase 14 (Homo sapiens) (Q16539 whole entry, the tested form may be a part): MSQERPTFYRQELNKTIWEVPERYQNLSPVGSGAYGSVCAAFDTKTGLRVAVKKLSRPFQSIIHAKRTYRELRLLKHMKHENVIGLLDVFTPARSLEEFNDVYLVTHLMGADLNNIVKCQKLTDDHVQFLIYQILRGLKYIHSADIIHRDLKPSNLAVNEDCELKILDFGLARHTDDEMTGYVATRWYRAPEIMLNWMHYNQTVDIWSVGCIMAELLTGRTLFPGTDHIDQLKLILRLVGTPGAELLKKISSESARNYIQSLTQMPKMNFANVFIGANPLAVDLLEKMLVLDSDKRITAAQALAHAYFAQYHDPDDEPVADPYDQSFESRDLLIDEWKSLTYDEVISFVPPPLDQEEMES

With `COc1cc(N2CCC(N3CCN(C)CC3)CC2)ccc1Nc1ncc2c(n1)N(C)c1ccccc1C(=O)N2C` the residual activity [1] was 84%, the inhibition [2] was 15% and the residual activity [3] was 88%. It also gave an inhibition [4] of 100%, an inhibition [5] of 100% and an inhibition [6] of 100%. It also gave an inhibition [7] of 100%, an inhibition [8] of 31% and an inhibition [9] of 100%. It also gave an inhibition [10] of 100%, a residual activity [11] of 59% and an inhibition [12] of 89%. For the same compound, the inhibition [13] was 100%, the inhibition [14] was 86% and the inhibition [15] was 100%. For the same compound, the inhibition [16] was 100%, the residual activity [17] was 71% and the inhibition [18] was 100%. For the same compound, the inhibition [19] was 50%, the inhibition [20] was 100% and the inhibition [21] was 55%. The inhibition [22] was 100%, the residual activity [23] was 89% and the residual activity [24] was 80%. The inhibition [25] was 65%, the residual activity [26] was 78% and the inhibition [27] was 100%. For the same compound, the inhibition [28] was 2.8%, the residual activity [29] was 87% and the inhibition [30] was 100%.
